Reference: ChEMBL document CHEMBL1201862, “PubChem BioAssay data set” (2004)
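Dose response: 5 concentrations. Exposure: 48 h. Format: 96-well plates. Endpoint: linear interpolation; highest concentration if not reached. GI50 = concentration required for 50% inhibition of growth.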 Activity calls are given as the source filed them. Rule as the data show it: active = GI50 up to about 1.1 µM and inactive = higher.

Experiments:
Test in all cases: NCI-60 cell line screen, 48 h
DU-145 = tested on: DU-145
SF-268 = tested on: SF-268
NCI-H226 = tested on: NCI-H226
UACC-257 = tested on: UACC-257
NCI-H23 = tested on: NCI-H23
HCT-15 = tested on: HCT-15
A549 = tested on: A549
OVCAR-5 = tested on: OVCAR-5
MDA-N = tested on: MDA-N
TK-10 = tested on: TK-10
SF-295 = tested on: SF-295
SNB-19 = tested on: SNB-19
NCI-H522 = tested on: NCI-H522
HOP-62 = tested on: HOP-62
CCRF-CEM = tested on: CCRF-CEM
RXF 393 = tested on: RXF 393
RPMI-8226 = tested on: RPMI-8226

Compound	GI50 (DU-145)	GI50 (SF-268)	GI50 (NCI-H226)	GI50 (UACC-257)	GI50 (NCI-H23)	GI50 (HCT-15) [µM]	GI50 (A549)	GI50 (OVCAR-5)	GI50 (MDA-N)	GI50 (TK-10)	GI50 (SF-295)	GI50 (SNB-19)	GI50 (NCI-H522)	GI50 (HOP-62)	GI50 (CCRF-CEM)	GI50 (RXF 393)	GI50 (RPMI-8226)
Cc1ccc(/C(O)=C/c2nc3ccccc3oc2=O)cc1	> 100 µM (inactive)	> 100 µM (inactive)	> 100 µM (inactive)	> 100 µM (inactive)	72.1 µM (inactive)	92.7	> 100 µM (inactive)	> 100 µM (inactive)	23.6 µM (inactive)	> 100 µM (inactive)	59.6 µM (inactive)	> 100 µM (inactive)	16.7 µM (inactive)	> 100 µM (inactive)	12.8 µM (inactive)	> 100 µM (inactive)	–
CC1=Nn2c(nc3sc4c(c3c2=O)CCCC4)SC1	> 86.1 µM (inactive)	> 58.1 µM (inactive)	> 100 µM (inactive)	> 100 µM (inactive)	> 100 µM (inactive)	52.6	> 83.6 µM (inactive)	> 100 µM (inactive)	28.4 µM (inactive)	53.7 µM (inactive)	> 100 µM (inactive)	90.2 µM (inactive)	53.2 µM (inactive)	> 100 µM (inactive)	35.3 µM (inactive)	> 75.7 µM (inactive)	69.2 µM (inactive)
Cc1ccc(/N=C2\C(=N/c3ccc(C)cc3)N(c3ccc(C)cc3)C(=S)N2C(=O)c2ccccc2)cc1	> 100 µM (inactive)	> 100 µM (inactive)	> 100 µM (inactive)	> 10 µM (inactive)	> 100 µM (inactive)	> 100	> 100 µM (inactive)	> 100 µM (inactive)	> 100 µM (inactive)	> 100 µM (inactive)	18.3 µM (inactive)	> 100 µM (inactive)	43.8 µM (inactive)	> 100 µM (inactive)	–	46.8 µM (inactive)	> 100 µM (inactive)
COC(=O)C1SC[C@H]2C(=O)N(c3ccccc3)C(=O)N12 (some centres undefined)	> 100 µM (inactive)	> 100 µM (inactive)	> 100 µM (inactive)	> 100 µM (inactive)	> 100 µM (inactive)	> 100	> 100 µM (inactive)	> 100 µM (inactive)	> 100 µM (inactive)	> 100 µM (inactive)	> 100 µM (inactive)	> 100 µM (inactive)	> 100 µM (inactive)	> 100 µM (inactive)	> 100 µM (inactive)	> 100 µM (inactive)	> 100 µM (inactive)
C(=N\N=C1NCCN1)/c1ccc2ccccc2c1	31.2 µM (inactive)	17.9 µM (inactive)	21 µM (inactive)	13.2 µM (inactive)	19.6 µM (inactive)	18.2	14.4 µM (inactive)	18.7 µM (inactive)	14.1 µM (inactive)	12.4 µM (inactive)	14.9 µM (inactive)	–	13.1 µM (inactive)	16.1 µM (inactive)	8.59 µM (inactive)	17.7 µM (inactive)	12 µM (inactive)
O=C(ON=C1c2ccccc2C(Br)C(Br)c2ccccc21)c1ccccc1 (centres undefined)	17.5 µM (inactive)	20.7 µM (inactive)	18 µM (inactive)	15.6 µM (inactive)	19.4 µM (inactive)	17.6	20.6 µM (inactive)	18.8 µM (inactive)	17.8 µM (inactive)	15.8 µM (inactive)	18.5 µM (inactive)	20.7 µM (inactive)	1.69 µM (inactive)	12.7 µM (inactive)	0.673 µM (active)	14.1 µM (inactive)	4.57 µM (inactive)
C=CCC1(O)C(=O)OC2C(O)COC21O (centres undefined)	> 100 µM (inactive)	> 100 µM (inactive)	> 100 µM (inactive)	> 100 µM (inactive)	> 100 µM (inactive)	> 100	> 100 µM (inactive)	> 100 µM (inactive)	> 100 µM (inactive)	> 100 µM (inactive)	> 100 µM (inactive)	> 100 µM (inactive)	> 100 µM (inactive)	> 100 µM (inactive)	> 100 µM (inactive)	> 100 µM (inactive)	–
COC(=O)C1(Cc2ccccc2)Cc2cc3c(cc2C1O)CCC3 (centres undefined)	15.2 µM (inactive)	30.3 µM (inactive)	19.5 µM (inactive)	18.2 µM (inactive)	15 µM (inactive)	30.5	24 µM (inactive)	13.6 µM (inactive)	17.5 µM (inactive)	25.9 µM (inactive)	27 µM (inactive)	–	17.4 µM (inactive)	19.3 µM (inactive)	16.1 µM (inactive)	15 µM (inactive)	22.7 µM (inactive)
O=C(c1ccccc1)N(C(=O)c1ccccc1)c1nc(SCc2ccccc2)ns1	30.9 µM (inactive)	30.8 µM (inactive)	28.6 µM (inactive)	22.2 µM (inactive)	24 µM (inactive)	23.9	38.5 µM (inactive)	33.7 µM (inactive)	26.5 µM (inactive)	25.9 µM (inactive)	25.1 µM (inactive)	50.6 µM (inactive)	20 µM (inactive)	32.9 µM (inactive)	25.6 µM (inactive)	31.7 µM (inactive)	19.6 µM (inactive)
O=c1/c(=C/c2ccccn2)sc2nc3cc4c(cc3n12)OCCO4	> 100 µM (inactive)	> 100 µM (inactive)	> 100 µM (inactive)	> 100 µM (inactive)	> 100 µM (inactive)	> 100	> 100 µM (inactive)	> 100 µM (inactive)	> 100 µM (inactive)	> 100 µM (inactive)	> 100 µM (inactive)	> 100 µM (inactive)	> 100 µM (inactive)	> 100 µM (inactive)	> 100 µM (inactive)	> 100 µM (inactive)	> 100 µM (inactive)
CC1(C)CCCCCCCCCC(C)(CCCO)C1=O (centres undefined)	17.2 µM (inactive)	18.2 µM (inactive)	16.1 µM (inactive)	17.7 µM (inactive)	15.5 µM (inactive)	17.8	15.5 µM (inactive)	15.5 µM (inactive)	16.4 µM (inactive)	–	18.6 µM (inactive)	17.8 µM (inactive)	15.4 µM (inactive)	16.6 µM (inactive)	28.9 µM (inactive)	19.7 µM (inactive)	26.5 µM (inactive)
NC(Cc1c[nH]c2cc([N+](=O)[O-])ccc12)C(=O)O (centres undefined)	> 100 µM (inactive)	> 100 µM (inactive)	33.7 µM (inactive)	> 100 µM (inactive)	> 100 µM (inactive)	> 100	> 100 µM (inactive)	> 100 µM (inactive)	> 100 µM (inactive)	> 100 µM (inactive)	> 100 µM (inactive)	> 100 µM (inactive)	> 100 µM (inactive)	> 100 µM (inactive)	–	> 100 µM (inactive)	> 100 µM (inactive)
Cc1ccc(-c2cc(O)c3nc4ccccc4n3c2)cc1	> 100 µM (inactive)	> 100 µM (inactive)	> 100 µM (inactive)	> 100 µM (inactive)	> 100 µM (inactive)	> 100	> 100 µM (inactive)	–	> 100 µM (inactive)	> 100 µM (inactive)	> 100 µM (inactive)	> 100 µM (inactive)	7.38 µM (inactive)	> 100 µM (inactive)	> 100 µM (inactive)	> 100 µM (inactive)	> 100 µM (inactive)
COc1cc2c(cc1OCCCC(=O)Nc1cc(C(=O)Nc3cc(C(=O)NCCCN(C)C)n(C)n3)n(C)n1)N=CC1CCCN1C2=O (centres undefined)	16.4 µM (inactive)	18.3 µM (inactive)	44.4 µM (inactive)	17.8 µM (inactive)	17.2 µM (inactive)	16.1	36.1 µM (inactive)	19.4 µM (inactive)	16.6 µM (inactive)	19.7 µM (inactive)	36.1 µM (inactive)	12.6 µM (inactive)	7 µM (inactive)	20.1 µM (inactive)	12.5 µM (inactive)	16.7 µM (inactive)	18.5 µM (inactive)
CC(/C=N/N(C)C1=NCCCN1)=N/N(C)C1=NCCCN1	> 100 µM (inactive)	> 100 µM (inactive)	> 100 µM (inactive)	> 100 µM (inactive)	> 100 µM (inactive)	> 100	> 100 µM (inactive)	> 100 µM (inactive)	> 100 µM (inactive)	> 100 µM (inactive)	> 100 µM (inactive)	> 100 µM (inactive)	> 100 µM (inactive)	> 100 µM (inactive)	> 100 µM (inactive)	> 100 µM (inactive)	> 100 µM (inactive)
CN(C)Cc1cc(C(=O)/C=C/c2ccc(Cl)c(Cl)c2)cc(CN(C)C)c1O	4.84 µM (inactive)	3.05 µM (inactive)	3.77 µM (inactive)	2.31 µM (inactive)	5.69 µM (inactive)	2.84	2.39 µM (inactive)	8.83 µM (inactive)	3.08 µM (inactive)	–	3.38 µM (inactive)	2.56 µM (inactive)	1.56 µM (inactive)	2.24 µM (inactive)	1.89 µM (inactive)	2.48 µM (inactive)	1.99 µM (inactive)
C=C1C(=O)[C@]23C[C@H]1C[C@@H](O)[C@H]2[C@]1(COC3=O)[C@@H](OC(C)=O)CC[C@@](C)(COC(C)=O)[C@H]1C=O [LOXOTHYRIN A]	> 50 µM (inactive)	13.8 µM (inactive)	9.57 µM (inactive)	> 50 µM (inactive)	> 50 µM (inactive)	> 50	> 50 µM (inactive)	> 50 µM (inactive)	> 50 µM (inactive)	> 50 µM (inactive)	> 50 µM (inactive)	> 50 µM (inactive)	7.28 µM (inactive)	> 50 µM (inactive)	7.28 µM (inactive)	17.2 µM (inactive)	–
